One test has as its system splenocytes. The experiment in a line: AcP-IgAN model: T cell proliferation analysis (thymidine uptake). It counts as in vivo, B cell-deficient mice. The method, then:
(§1) B cell-deficient mice (B6.129S2-Igh-6tm1Cgn/J) were obtained from the Academia Sinica (Professor John T. Kung, Institute of Molecular Biology), and maintained at the animal center of the National Defense Medical Center, Taipei, Taiwan. AcP-IgAN was induced in the mice by daily injection of purified IgA anti-phosphorylcholine antibodies and pneumococcal C-polysaccharide (PnC) as described previously (Chao, et al., Kidney Int. 70:283-297; 2006). All animal experiments were performed with the approval of the Institutional Animal Care and Use Committee of The National Defense Medical Center, Taiwan, and were consistent with the NIH Guide for the Care and Use of Laboratory Animals.
Splenocytes from the mice were prepared as described as above, then were cultured in triplicate in wells (5×10^5 cells in 200 μl/well) in 96-well flat-bottomed microtiter plates previously coated overnight at 4° C. with 0.25 μg/ml of anti-mouse CD3 antibody (BD Biosciences). After 48 hr, the cultures were pulsed with 1 μCi of 3H-methyl thymidine (Amersham Pharmacia Biotech, NJ), harvested 16 hr later, and the incorporated 3H-methyl thymidine measured using a TopCount (Packard, PerkinElmer, MA).

Test [1] can be described thus: FSGS model: renal histopathology (H&E). It counts as in vivo, BALB/c mice. Particulars: FSGS mice, 50 mg/kg by gavage daily, day 14 to day 21, vs control FSGS mice. Here is the method: Experiments described herein were performed on 8-week-old female BALB/c mice. The FSGS mice were injected intravenously with a single dose of adriamycin (0.1 mg/10 g body weight). […] BALB/c mice intraperitoneal injected with normal saline were used as normal controls, while ASLN mice given vehicle (corn oil) by gavage were used as disease controls. Mice were killed at day 7, 14, or 21 after disease induction, and spleen, renal cortical tissue, and blood samples collected and stored appropriately until analysis. All animal experiments were performed with the ethical approval of the Institutional Animal Care and Use Committee of The National Defense Medical Center, Taiwan and performed according to the ethical rules in the NIH Guide for the Care and Use of Laboratory Animals.
Formalin-fixed and paraffin-embedded renal sections were prepared as described in Shui et al. for renal pathologic evaluation. (Shui, et al., Transl Res, 150: 216-222, 2007) Renal pathology and scoring of renal lesions were performed according to the known method disclosed in Shui. […] The number of glomeruli with EPHLs was expressed as a percentage of the total number of evaluated glomeruli according to methods disclosed before (see for example, Shui, et al., Nephrol Dial Transplant, 21: 1794-1802, 2006; Ka, et al., Nephrol Dial Transplant, 21: 288-298, 2006).

For another test, the system named is NF-κB p65. The experiment in a line: FSGS model: renal NF-κB activation (IHC, ELISA). It counts as in vivo, BALB/c mice. As to conditions: FSGS mice. Here is the method: (§2) Experiments described herein were performed on 8-week-old female BALB/c mice. The FSGS mice were injected intravenously with a single dose of adriamycin (0.1 mg/10 g body weight). The mice were given Compound 1 six hours before adriamycin injection by gavage daily till sacrifice. BALB/c mice intraperitoneal injected with normal saline were used as normal controls, while ASLN mice given vehicle (corn oil) by gavage were used as disease controls. Mice were killed at day 7, 14, or 21 after disease induction, and spleen, renal cortical tissue, and blood samples collected and stored appropriately until analysis. All animal experiments were performed with the ethical approval of the Institutional Animal Care and Use Committee of The National Defense Medical Center, Taiwan and performed according to the ethical rules in the NIH Guide for the Care and Use of Laboratory Animals.
(§3) For IHC, formalin-fixed and paraffin-embedded renal sections were prepared and incubated with primary antibodies against mouse Desmin (Lab Vision, CA, USA), CD3 (pan-T cell; Serotec, N.C., USA), F4/80 (monocytes/macrophages; Serotec), IL-6 (R&D Systems, MN, USA), NF-κB p65 (Cell Signaling Technology, MA, USA), collagen I, III, and IV (Southern Biotech, AL, USA), or TGF-β1 (Santa Cruz Biotechnology, CA, USA), biotinylated second antibodies (Dako, Glostrup, Denmark), and avidin-biotin-peroxidase complex (Dako). Semi-quantitative evaluation of staining was performed.
Nuclear proteins were extracted using a nuclear extract kit (Active Motif, Japan). Phospho-NF-κB p65 and nuclear factor-erythroid-2-related factor 2 (NrF2) were measured in renal tissue nuclear protein extracts using Trans-AM ELISA assay kits (Active Motif), according to the manufacturer's instructions. Renal cytosolic protein extracts using RIPA buffer (Cell signaling). Cytosolic glutathione peroxidase (GPx) (Cayman, Mich.) and cytosolic heme oxygenase-1 (HO-1) (Enzo Life Sciences, NY) were measured using commercial ELISA kits according to the manufacturer's instructions. Both were expressed relative to the protein concentration in the lysate.
In general terms: In an ELISA, binding on a coated surface is turned into a signal by an enzyme label.

A further test deals with IL-6. The experiment in a line: FSGS model: renal IL-6 (IHC). As to conditions: FSGS mice, vs control FSGS mice. It counts as in vivo, BALB/c mice. The method, then: as §2, with “All animal experiments were performed with the ethical approval of the Institutional Animal Care and Use Committee of The National Defense Medical Center, Taiwan and performed according to the ethical rules in the NIH Guide for the Care and Use of Laboratory Animals.” left out
as §3

Another test relates to IL-1beta. The experiment in a line: AcP-IgAN model: renal IL-1beta mRNA. Format: in vivo, B cell-deficient mice. The method, then: as §1
Total cortical kidney RNA was extracted with TriZOL reagents (Invitrogen) from cortical tissue of the kidney. For first-strand cDNA synthesis, 1.5 μg of total RNA was used in a single-round reverse transcriptase reaction. The reaction mixture consisted of 0.9 μl of Oligo (dT) 12 to 18 primer, 1.0 mM deoxyribonucleotide triphosphate (dNTP), 1 μl first strand buffer, 0.4 mM dithiothreitol, 80 U of RNaseout recombinant ribonuclease inhibitor, and 300 U of superscript II RNase H (Invitrogen). Real-time PCR was performed on an ABI Prism 7700 Sequence Detection System (Applied Biosystems, CA). All of the probes and primers were Assays-on-Demand Gene expression products (Applied Biosystems). […]

For test [2] the following is noted: based on a previous study and empirical use (Chang et al. 2008); cited from earlier work.

Molecules are shown by their SMILES.

On to `COC1=C(OC)[C@H](O)[C@H](C/C=C(\C)CC/C=C(\C)CCC=C(C)C)[C@@H](C)C1=O` [Compound 1, Antroquinonol], for which the “proliferation of CD3^+ T cell in splenocytes (thymidine uptake)” value in the test on splenocytes (AcP-IgAN mice, day 28) is given as “near baseline levels of proliferation”; in the test with splenocytes (day 3, worded as control AcP-IgAN mice relative to AcP-IgAN+Antroq mice), “greatly increased proliferation of CD3^+ T cell in splenocytes compared to that of AcP-IgAN+Antroq mice”. For the same compound, in test [1], the “progressive renal lesions (sclerotic lesions, glomeruli containing EPHL, peri-glomerular mononuclear leukocyte infiltration), H&E” value is listed as “greatly reduced”. Moreover, the “nuclear protein expression of NF-κB p65 (ELISA, renal nuclear extracts)” value is given as “no significant difference” in the test with NF-κB p65 (day 7), “slightly blocked” with NF-κB p65 (day 14) and “significantly inhibited” with NF-κB p65 (day 21). Besides, in the test on NF-κB p65 (day 14 and day 21, vs control FSGS mice), the “NF-κB activation, nuclear NF-κB p65 expression (IHC)” value is reported as “markedly inhibited”. In the test with IL-6, the “renal protein expression levels of IL-6 (IHC)” value was “significantly reduced”. Also, in the test with IL-1beta (AcP-IgAN mice, day 28, vs control AcP-IgAN mice), the “renal mRNA levels of IL-1beta (elevation)” value is reported as “significantly inhibited”. Also, the “renal IL-1beta mRNA expression” value in the test with IL-1beta (all mice, day 3) is “no detectable increase”. In test [2], the effective range is reported as 10-50 mg/kg body weight.

The record behind these values is US10406120B2, “Methods and compositions for treating kidney disorders” (Golden Biotechnology Corporation, priority 2013, dated 2019).
